From patent US20190083521A1, “COMBINATION THERAPY FOR TREATING CANCER” (Epizyme, Inc., priority 2014, published 2019)

Tests used:
Assay type in all cases: cell-based, human
[1] = system: MOLM-13 cells; test: Example 6 combination screen: 300 nM EPZ-5676 pre-treatment, second compound 72 h, ATPLite, IC50 shift; conditions: 300 nM EPZ-5676 pre-treatment (4 + 3 days) vs DMSO, then 2nd compound 72 h, IC50 shift of 2nd compound
Procedure: (§1) Cells were then equilibrated in incubators for 24 hours before treatment with a second compound. Treated assay plates were incubated with a second compound for 72 hours. After this time, plates were developed for endpoint analysis using ATPLite to measure ATP content, which is used as an indicator of cell viability.
(§2) “N/D” means that IC50 of the second compound could not be determined for both conditions.

[2] = system: SKM-1 cells; test: as above; conditions: SKM-1 cells; 300 nM EPZ-5676 pre-treatment (4 + 3 days) vs DMSO, then 2nd compound 72 h; ATPLite; IC50 shift of 2nd compound
Procedure: as §1, §2

[3] = system: MOLM-13 (MLL-AF9) cells; test: Combination proliferation assay with Compound A2 (CellTiter-Glo, Chou-Talalay CI); conditions: for Combination effect with Compound A2 (Table 4): MOLM-13 (MLL-AF9); for Combination effect with Compound A2 (Table 2): MOLM-13 MLL-AF9; for Combination effect with Compound A2: MOLM-13, 7 Day Cotreatment (Example 1)
Procedure: (§3) The acute myelogenous leukemia cell lines MV4-11 (MLL-AF4) and MOLM-13 (MLL-AF9) were obtained from American Type Culture Collection (ATCC; Rockville, Md.) and Deutsche Sammlung von Mikroorganismen and Zellkulturen (DSMZ; Braunschweig, Germany) respectively.
(§4) Studies were performed using MLL-rearranged cell lines in vitro to evaluate the anti-proliferative effect of a combination of two agents together on cell growth. Initial proliferation studies were performed to determine the IC50 of a given compound in each cell line. The cell counts were measured by ATP quantitation using the Promega Cell Titer Glo kit and luminescence values corresponded to the amount of ATP in a given well.
(§5) Compounds were evaluated for synergy in the co-treatment phase by testing the compounds in a concentration range which was bracketed around their IC50 values. The compounds were plated to a 96 well plate in a matrix format (FIG. 3) which includes increasing concentrations of each drug in the combination in a constant ratio, in addition to the effect of each compound alone in the study. Cells were seeded and grown in the log-linear phase for 3 or 7 days in the co-treatment phase. Minimum inhibition (DMSO alone) controls were used in each plate to calculate fraction affected (Fa) of a test well. DMSO concentration was kept at 0.1% v/v.
(§6) The drug combination analysis was performed utilizing the Chou-Talalay method Synergy was determined using the software package Calcusyn by Biosoft. The combination index (CI) is a quantitative term used to describe the level of synergy or antagonism in a given test system. A combination index less than one indicates synergy, and a CI greater than one indicates antagonism. Further, strong synergism is achieved when the CI value falls below 0.3.
(§7) The HP-D300 digital dispenser (Tecan) was used to dispense compounds in a combinatorial matrix. […] Cell viability was measured via ATP content using CellTiter-Glo® (Promega).
(§8) Viability was determined using CellTiter-Glo® (Promega).
Cell viability was measured via ATP content using CellTiter-Glo® (Promega).
as §4, with “Proliferation studies” for “Studies”, “MOLM-13, MV4-11 and SKM-1” for “MLL-rearranged”, “cancer cell killing” for “anti-proliferative”, “IC50 values” for “IC50”, “correspond” for “corresponded”
(§9) These studies were performed to evaluate both the combinatorial effect of compounds on cell killing and the durability of the effect by washing out one of the agents.
(§10) Compounds evaluated for synergy in the co-treatment phase were tested in a range which was bracketed around the IC50's. The compounds were plated to a 96 well plate in a matrix format which includes increasing concentrations of each drug in the combination in a constant ratio, in addition to the effect of each compound alone in the study. Cells were seeded and grown in the log-linear phase for 3 or 7 days in the cotreatment phase. Maximum and minimum inhibition (DMSO alone) controls were used in each plate to calculate fraction affected (Fa) of a test well. DMSO concentration was kept at 0.1% v/v. The drug combination analysis was performed utilizing the Chou-Talalay method. Synergy was determined using the software package Calcusyn by Biosoft. The combination index (CI) is the term used to describe the level of synergy or antagonism in a given test system. A combination index less than one indicates synergy, and a CI greater than one indicates antagonism.
(§11) The drug combination analysis was performed using the Chou-Talalay method. Graphs representing values of combination index (CI) versus Fractional effect (Fa) known as Fa-CI plots were generated and synergy was evaluated.

[4] = system: MV4-11 (MLL-AF4) cells; test: as above; conditions: for Combination effect with Compound A2 (Table 4): MV4-11 (MLL-AF4); for Combination effect with Compound A2 (Table 4) / Combination effect with Compound A2 (Table 5): 7 Day Cotreatment Model; for Combination effect with Compound A2 (Table 2): MV4-11 MLL-AF4; for Combination effect with Compound A2 / Combination effect with Compound A2 (Table 5): MV4-11; for Combination effect with Compound A2: 7 Day Cotreatment (Example 1)
Procedure: as §3, §4, §5, §6, §7, §8
as §4, with “Proliferation studies” for “Studies”, “MOLM-13, MV4-11 and SKM-1” for “MLL-rearranged”, “cancer cell killing” for “anti-proliferative”, “IC50 values” for “IC50”, “correspond” for “corresponded”
as §9, §10
as §11, with “evaluated. Drug synergy was statistically defined by CI values less than 1, antagonism by CI>1 and additive effect by CI equal to 1.” for “evaluated.”

Cc1cccc(-c2[nH]c(C(C)(C)C)nc2-c2ccc3c(c2)OCO3)n1 [SB-505124]
Summary of Combination Studies: MOLM-13 [1]: Synergy (considered synergistic if the IC50 value of the second compound decreased by 2-fold or more when EPZ-5676 was added as compared to the DMSO control)

COc1ccc(-c2ccc3c(N4CCOCC4)nc(N4C[C@@H](C)O[C@@H](C)C4)nc3n2)cc1CO [KU 0063794]
Summary of Combination Studies: SKM-1 [2]: Synergy (considered synergistic if the IC50 value of the second compound decreased by 2-fold or more when EPZ-5676 was added as compared to the DMSO control)
Summary of Combination Studies: MOLM-13 [1]: Synergy (considered synergistic if the IC50 value of the second compound decreased by 2-fold or more when EPZ-5676 was added as compared to the DMSO control)

CC(=O)OC[C@H]1O[C@@H]([S-])[C@H](OC(C)=O)[C@@H](OC(C)=O)[C@@H]1OC(C)=O.CCP(CC)CC.[Au+] [Auranofin]
Summary of Combination Studies: MOLM-13 [1]: Synergy (considered synergistic if the IC50 value of the second compound decreased by 2-fold or more when EPZ-5676 was added as compared to the DMSO control)

CCCc1cc2c(N3CCN(C4=NCC(C)(C)S4)CC3)ncnc2s1 [Menin-MLL inhibitor MI-2]
Combination effect with Compound A2 (Table 4) ([3]; 7 Day Cotreatment Model): Synergy (Drug synergy was statistically defined by CI values less than 1)
Combination effect with Compound A2 (Table 4) [4]: Synergy (Drug synergy was statistically defined by CI values less than 1)

Clc1ccc(C2(c3ccc(-c4cn[nH]c4)cc3)CCNCC2)cc1 [AT7867]
Summary of Combination Studies: MOLM-13 [1]: Synergy (considered synergistic if the IC50 value of the second compound decreased by 2-fold or more when EPZ-5676 was added as compared to the DMSO control)

Cc1sc2c(c1C)C(c1ccc(Cl)cc1)=N[C@@H](CC(=O)OC(C)(C)C)c1nnc(C)n1-2 [JQ1]
Combination effect with Compound A2 (Table 4) ([3]; 7 Day Cotreatment Model): Additive (additive effect by CI equal to 1)
Combination effect with Compound A2 (Table 2) [3]: Additive (additive effect by CI equal to 1)
Combination effect with Compound A2 (Table 4) [4]: Additive (additive effect by CI equal to 1)
Combination effect with Compound A2 (Table 2) [4]: Additive (additive effect by CI equal to 1)

c1ccc2c(CCNc3ccc(Nc4ccncc4)cc3)c[nH]c2c1 [JNJ 26854165]
Summary of Combination Studies: MOLM-13 [1]: Synergy (considered synergistic if the IC50 value of the second compound decreased by 2-fold or more when EPZ-5676 was added as compared to the DMSO control)

O=c1cc(N2CCOCC2)oc2c(-c3cccc4c3sc3ccccc34)cccc12 [NU 7441]
Summary of Combination Studies: MOLM-13 [1]: Synergy (considered synergistic if the IC50 value of the second compound decreased by 2-fold or more when EPZ-5676 was added as compared to the DMSO control)

CC1(C)CCC(c2ccc(Cl)cc2)=C(CN2CCN(c3ccc(C(=O)NS(=O)(=O)c4ccc(N[C@H](CCN5CCOCC5)CSc5ccccc5)c(S(=O)(=O)C(F)(F)F)c4)cc3)CC2)C1 [Navitoclax]
Combination effect with Compound A2 [3]: synergy
Combination effect with Compound A2 [4]: synergy

O=C1c2c(O)ccc(O)c2C(=O)c2c(NCCNCCO)ccc(NCCNCCO)c21 [Mitoxantrone]
Combination effect with Compound A2 [4]: Synergy (A combination index less than one indicates synergy)

N.N.[Cl][Pt][Cl] [Cisplatin]
Summary of Combination Studies: MOLM-13 [1]: Synergy (considered synergistic if the IC50 value of the second compound decreased by 2-fold or more when EPZ-5676 was added as compared to the DMSO control)

N[C@@H]1C[C@H]1c1ccccc1 (racemic) [Tranylcypromine]
Combination effect with Compound A2 (Table 4) ([3]; 7 Day Cotreatment Model): Strong Synergy
Combination effect with Compound A2 [3]: synergy
Combination effect with Compound A2 (Table 4) [4]: Synergy (Drug synergy was statistically defined by CI values less than 1)
Combination effect with Compound A2 [4]: synergy

COc1ccc(C2=N[C@@H](c3ccc(Cl)cc3)[C@@H](c3ccc(Cl)cc3)N2C(=O)N2CCNC(=O)C2)c(OC(C)C)c1 [Nutlin-3]
Summary of Combination Studies: MOLM-13 [1]: Synergy (considered synergistic if the IC50 value of the second compound decreased by 2-fold or more when EPZ-5676 was added as compared to the DMSO control)

CC(C)(C)c1cc(NC(=O)Nc2ccc(-c3cn4c(n3)sc3cc(OCCN5CCOCC5)ccc34)cc2)no1 [Quizartinib]
Combination effect with Compound A2 [4]: synergy

COc1cc2c(cc1-c1c(C)noc1C)ncc1[nH]c(=O)n([C@H](C)c3ccccn3)c12 [IBET-151]
Combination effect with Compound A2 (Table 2) [3]: Synergy (Drug synergy was statistically defined by CI values less than 1)
Combination effect with Compound A2 [4]: Synergy (A combination index less than one indicates synergy)
Combination effect with Compound A2 (Table 2) [4]: Synergy (Drug synergy was statistically defined by CI values less than 1)

Nc1ncn([C@H]2C[C@H](O)[C@@H](CO)O2)c(=O)n1 [Decitabine]
Combination effect with Compound A2 (Table 2) [3]: Synergy (Drug synergy was statistically defined by CI values less than 1)
Combination effect with Compound A2 (Table 2) [4]: Synergy (Drug synergy was statistically defined by CI values less than 1)

Cn1cncc1[C@@](N)(c1ccc(Cl)cc1)c1ccc2c(c1)c(-c1cccc(Cl)c1)cc(=O)n2C [Tipifarnib]
Combination effect with Compound A2 (Table 5) [4]: Synergy (Drug synergy was statistically defined by CI values less than 1)

Nc1ccccc1NC(=O)c1ccc(CNC(=O)OCc2cccnc2)cc1 [MS-275]
Summary of Combination Studies: MOLM-13 [1]: Synergy (considered synergistic if the IC50 value of the second compound decreased by 2-fold or more when EPZ-5676 was added as compared to the DMSO control)

NC1(c2ccc(-c3nc4ccn5c(=O)[nH]nc5c4cc3-c3ccccc3)cc2)CCC1 [MK2206]
Combination effect with Compound A2 (Table 5) ([3]; MOLM13, 7 Day Cotreatment Model): Additive (additive effect by CI equal to 1)
Summary of Combination Studies: SKM-1 [2]: Synergy (considered synergistic if the IC50 value of the second compound decreased by 2-fold or more when EPZ-5676 was added as compared to the DMSO control)

CC[C@@H]1C(=O)N(C)c2cnc(Nc3ccc(C(=O)N[C@H]4CC[C@H](N5CCN(CC6CC6)CC5)CC4)cc3OC)nc2N1C(C)C [Volasertib]
Combination effect with Compound A2 (Table 5) [4]: Antagonstic

O=C1c2ccccc2-c2nc3nonc3nc21 [SMER 3]
Summary of Combination Studies: MOLM-13 [1]: Synergy (considered synergistic if the IC50 value of the second compound decreased by 2-fold or more when EPZ-5676 was added as compared to the DMSO control)

Cc1cc(Cl)cc(OCCn2cc(F)cn2)c1-c1nc(N)nc2c1CN(C(=O)NCC(C)(F)F)C2 [BEP800]
Summary of Combination Studies: MOLM-13 [1]: Synergy (considered synergistic if the IC50 value of the second compound decreased by 2-fold or more when EPZ-5676 was added as compared to the DMSO control)

c1ccc([C@@H]2C[C@H]2NC2CCNCC2)cc1 [GSK-LSD1]
Summary of Combination Studies: MOLM-13 [1]: Synergy (considered synergistic if the IC50 value of the second compound decreased by 2-fold or more when EPZ-5676 was added as compared to the DMSO control)

CC(=O)O/N=C1\C(=O)N(Cc2cc(Cl)ccc2Cl)c2ccc(Cl)cc21 [LDN 57444]
Summary of Combination Studies: MOLM-13 [1]: Synergy (considered synergistic if the IC50 value of the second compound decreased by 2-fold or more when EPZ-5676 was added as compared to the DMSO control)
